According to patent publication US20260070944A1, “PEPTIDE PROMOTING TYROSINASE ACTIVITY AND USE THEREOF” (HYSENSBIO CO., LTD, priority 2022, published 2026):
Where no end group is shown, it is not given here.

Test system: B16F10 cells
Experiment: MTT assay, cell viability
Assay type: cell-based
Description: A melanocyte (B16F10) cell line was cultured using DMEM containing 10% FBS and 1% penicillin/streptomycin (PS) at 37° C. in a 5% CO2 incubator.
An MTT reagent was used by being diluted in DMEM at a concentration of 0.5 mg/mL.
B16F10 cells were seeded at 230,000 cells/well in a 6-well plate, and cultured at 37° C. in a 5% CO2 incubator for 24 hours. Subsequently, the cells were treated with peptide KH001 (SEQ ID NO: 96) at different concentrations for 72 hours to prepare the cells, and then the MTT reagent was added and allowed to react in a 37° C. incubator for 1 hour under light blocking conditions. After removing the entire medium, the generated formazan was dissolved in DMSO, and then absorbance was measured at 560 nm.
B16F10 cells were treated with the KH001 peptide at different concentrations. After 72 hours after KH001 peptide treatment, cell viability was measured using an MTT assay.

## KYKQKRRSYK [KH001, KYKQKRRSYK]
50 μM, 100 μM and 200 μM, 72 hours, MTT
  cell viability compared to the control: no significant difference
At the predetermined concentrations (50, 100, 200 μM)
  toxicity: no toxicity
